What is called IC50 is the concentration that gives 50% inhibition. A lower IC50 goes with inhibition by little substance. Broadly, the Emax is the greatest response seen or fitted, relative to the assay's reference. What is called melting point is the temperature, or range, at which the solid turns liquid.

The results in this text go back to US20200121677A1, “SUBSTITUTED 6,7-DIHYDROPYRAZOLO[1,5-a]PYRAZINES AS NEGATIVE ALLOSTERIC MODULATORS OF MGLUR2 RECEPTORS” (Janssen Pharmaceutica NV, priority 2014, published 2020).

In one series the target is human mGlu2 receptor (Homo sapiens, UniProt Q14416). The series can be described thus: [35S]GTPγS binding assay, mGluR2 negative allosteric modulation (membranes from CHO cells transfected with human mGlu2 receptor, glutamate ~EC80 60 μM).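 For all read-outs here: membranes preincubated 30 min at 30 °C with compound plus glutamate, then [35S]GTPγS (0.1 nM) incorporation measured over another 30 min at 30 °C.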 Particulars: for IC50: GTPγS - hmGluR2 anGT pIC50, membranes with human mGlu2 receptor, glutamate ~EC80 (60 μM), pIC50 = -log IC50 (M); for Emax: read-out: GTPγS - hmGluR2 anGT Emax, relative maximal effect: maximal % inhibition relative to the control glutamate response. For orientation: Binding of GTPγS marks nucleotide exchange on a G protein.
human mGlu2 receptor, sequence (Q14416 19-872): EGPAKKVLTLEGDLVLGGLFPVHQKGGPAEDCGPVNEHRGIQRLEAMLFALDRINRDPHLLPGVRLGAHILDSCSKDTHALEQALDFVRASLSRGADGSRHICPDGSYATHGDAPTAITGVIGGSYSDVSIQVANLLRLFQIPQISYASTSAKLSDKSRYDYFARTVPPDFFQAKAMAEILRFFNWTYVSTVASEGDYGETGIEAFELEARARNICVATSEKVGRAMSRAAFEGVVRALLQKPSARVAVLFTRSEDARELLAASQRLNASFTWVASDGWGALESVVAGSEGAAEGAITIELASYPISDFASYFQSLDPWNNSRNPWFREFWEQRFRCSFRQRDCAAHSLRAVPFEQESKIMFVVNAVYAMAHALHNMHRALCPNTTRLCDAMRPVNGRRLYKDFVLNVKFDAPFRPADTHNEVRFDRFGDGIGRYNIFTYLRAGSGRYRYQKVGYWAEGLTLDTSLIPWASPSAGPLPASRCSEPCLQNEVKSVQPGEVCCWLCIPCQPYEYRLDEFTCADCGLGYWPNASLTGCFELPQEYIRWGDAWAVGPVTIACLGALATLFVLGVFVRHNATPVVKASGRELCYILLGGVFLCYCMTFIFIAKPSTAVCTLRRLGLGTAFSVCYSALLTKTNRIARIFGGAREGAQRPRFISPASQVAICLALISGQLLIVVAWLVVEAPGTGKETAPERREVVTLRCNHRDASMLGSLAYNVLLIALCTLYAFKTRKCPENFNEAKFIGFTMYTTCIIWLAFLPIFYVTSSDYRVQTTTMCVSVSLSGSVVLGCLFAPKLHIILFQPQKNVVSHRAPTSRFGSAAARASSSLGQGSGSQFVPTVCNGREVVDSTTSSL

Protocol for human mGlu2 receptor: The [^35S]GTPγS binding assay is a functional membrane-based assay used to study G-protein coupled receptor (GPCR) function whereby incorporation of a non-hydrolysable form of GTP, [^35S]GTPγS (guanosine 5′-triphosphate, labelled with gamma-emitting ^35S), is measured. […] Here we describe the use of the [^35S]GTPγS binding assay using membranes from cells transfected with the human mGlu2 receptor and adapted from Schaffhauser et al. (Molecular Pharmacology, 2003, 4:798-810) for the detection of the negative allosteric modulation (NAM) properties of the compounds of this invention.
CHO-cells were cultured to pre-confluence and stimulated with 5 mM butyrate for 24 h. Cells were then collected by scraping in PBS and cell suspension was centrifuged (10 min at 4000 RPM in benchtop centrifuge). Supernatant was discarded and pellet gently resuspended in 50 mM Tris-HCl, pH 7.4 by mixing with an Ultra Turrax homogenizer. The suspension was centrifuged at 12,400 RPM (Sorvall F14S-6x250Y) for 10 minutes and the supernatant discarded. The pellet was homogenized in 5 mM Tris-HCl, pH 7.4 using an Ultra Turrax homogenizer and centrifuged again (13,000 RPM, 20 min, 4° C.). The final pellet was resuspended in 50 mM Tris-HCl, pH 7.4 and stored at −80° C. in appropriate aliquots before use. Protein concentration was determined by the Bradford method (Bio-Rad, USA) with bovine serum albumin as standard.
Measurement of mGluR2 negative allosteric modulatory activity of test compounds was performed as follows. Test compounds and glutamate were diluted in assay buffer containing 10 mM HEPES acid, 10 mM HEPES salt, pH 7.4, 100 mM NaCl, 3 mM MgCl2 and 10 μM GDP. Human mGlu2 receptor-containing membranes were thawed on ice and diluted in assay buffer supplemented with 18 μg/ml saponin. Membranes were pre-incubated with compound together with a predefined (˜EC80) concentration of glutamate (60 μM) for 30 min at 30° C. After addition of [^35S]GTPγS (f.c. 0.1 nM), assay mixtures were shaken briefly and further incubated to allow [^35S]GTPγS incorporation on activation (30 minutes, 30° C.). Final assay mixtures contained 7 μg of membrane protein in 10 mM HEPES acid, 10 mM HEPES salt, pH 7.4, 100 mM NaCl, 3 mM MgCl2, 10 μM GDP and 10 μg/ml saponin. Total reaction volume was 200 μl. Reactions were terminated by rapid filtration through Unifilter-96 GF/B plates (Perkin Elmer, Massachusetts, USA) using a 96-well filtermate universal harvester. Filters were washed 6 times with ice-cold 10 mM NaH2PO4/10 mM Na2HPO4, pH 7.4. Filters were then air-dried, and 30 μl of liquid scintillation cocktail (Microscint-O) was added to each well. Membrane-bound radioactivity was counted in a Topcount.
Data were calculated as % of the control glutamate response, defined as the response that is generated upon addition of an EC80-equivalent concentration of glutamate.

`C[C@H]1CN(c2ccc(C(F)(F)F)cc2)C(=O)c2c(C(=O)NC3CCCCC3)cnn21` [compound 65] yielded a melting point of 209.8 °C. Further, on human mGlu2 receptor, the IC50 was 1.78e-07 M and the Emax was found to be 107%.

Turning to `C[C@H]1CN(c2ccc(C(F)(F)F)cc2)C(=O)c2c(C(=O)NCC3CCOCC3)cnn21` [compound 70], the melting point is 128.8 °C. Moreover, on human mGlu2 receptor, the IC50 was 8.13e-07 M and the Emax stood at 106%.

Take `C[C@H]1CN(c2ccc(C(F)(F)F)cc2)C(=O)c2c(C(=O)NC3CCC3)cnn21` [compound 71]: the melting point was 208.2 °C. On human mGlu2 receptor, the IC50 was 7.08e-08 M and the Emax turned out to be 111%.

For `C[C@H]1CN(c2ccc(C(F)(F)F)cc2)C(=O)c2c(C(=O)NC3COC3)cnn21` [compound 72], the melting point worked out at 108.6 °C. For the same compound, on human mGlu2 receptor, the IC50 was 2.75e-07 M and the Emax is 111%.

For `C[C@H]1CN(c2ccc(C(F)(F)F)cc2)C(=O)c2c(C(N)=O)cnn21` [compound 73, (7S)-7-methyl-4-oxo-5-[4-(trifluoromethyl)phenyl]-6,7-dihydropyrazolo [1,5-a]pyrazine-3-carboxamide], the melting point is 275 °C. Besides, on human mGlu2 receptor, the IC50 was 1.35e-06 M and the Emax was determined as 95%.

`Cc1cc(N2C[C@H](C)n3ncc(C(=O)Nc4cncc(F)c4C)c3C2=O)ccc1Cl` [compound 79] had a melting point of 182 °C. In addition, on human mGlu2 receptor, the IC50 is 1.66e-09 M and the Emax stood at 112%.

`COc1nc(N2C[C@H](C)n3ncc(C(=O)Nc4ccccc4)c3C2=O)ccc1Cl` [compound 83, (7S)-5-(5-Chloro-6-methoxy-2-pyridyl)-7-methyl-4-oxo-N-phenyl-6,7-dihydropyrazolo[1,5-a]pyrazine-3-carboxamide] displayed a melting point of 203.08 °C. Besides, at human mGlu2 receptor, the IC50 is 1.55e-08 M and the Emax is 111%.

`Cc1cc(NC(=O)c2cnn3c2C(=O)N(c2ccc(C(F)(F)F)c(C#N)c2)C[C@@H]3C)ccn1` [compound 91] showed a melting point of 224.9 °C. On human mGlu2 receptor, the IC50 is 1.86e-08 M and the Emax was 103%.

As to `Cc1cc(NC(=O)c2cnn3c2C(=O)N(c2ccccc2)C[C@@H]3C)ccn1` [compound 97], the melting point was determined as 94.5 °C. Moreover, at human mGlu2 receptor, the IC50 was 1.48e-07 M and the Emax turned out to be 114%.

Compound `Cc1ncc(NC(=O)c2cnn3c2C(=O)N(c2ccc(C(F)(F)F)cc2)C[C@@H]3C)cn1` [compound 99] returned a melting point of 223.3 °C. At human mGlu2 receptor, the IC50 is 4.57e-08 M and the Emax came to 100%.

`C[C@H]1CN(c2ccc(C(F)(F)F)cc2)C(=O)c2c(C(=O)Nc3ncccn3)cnn21` [compound 103]: the melting point came out at 248.3 °C. Also, at human mGlu2 receptor, the IC50 is 1.02e-07 M and the Emax is 104%.

Turning to `C[C@H]1CN(c2ccc(C(F)(F)F)c(F)c2)C(=O)c2c(C(=O)Nc3cnccn3)cnn21` [compound 113], the melting point came to 181.5 °C. Further, on human mGlu2 receptor, the IC50 was 3.16e-09 M and the Emax came out at 107%.

`COc1cc(N2C[C@H](C)n3ncc(C(=O)Nc4cnccn4)c3C2=O)ccc1C(F)(F)F` [compound 115] showed a melting point of 193.3 °C. On human mGlu2 receptor, the IC50 was 6.92e-09 M and the Emax is 108%.

The compound `COc1cccc(NC(=O)c2cnn3c2C(=O)N(c2ccc(C(F)(F)F)c(OC)n2)C[C@@H]3C)c1` [compound 119, (7S)—N-(3-Methoxyphenyl)-5-[6-methoxy-5-(trifluoromethyl)-2-pyridyl]-7-methyl-4-oxo-6,7-dihydropyrazolo[1,5-a]pyrazine-3-carboxamide] gave a melting point of 194.51 °C. In addition, at human mGlu2 receptor, the IC50 was 7.76e-09 M and the Emax is 111%.

`COc1ccc(NC(=O)c2cnn3c2C(=O)N(c2ccc(C(F)(F)F)c(OC)n2)C[C@@H]3C)cc1` [compound 121]: the melting point is 212.39 °C. For the same compound, on human mGlu2 receptor, the IC50 was 9.77e-09 M and the Emax was 109%.

Compound `COc1ccccc1NC(=O)c1cnn2c1C(=O)N(c1ccc(C(F)(F)F)c(OC)n1)C[C@@H]2C` [compound 122] showed a melting point of 192.95 °C. Besides, on human mGlu2 receptor, the IC50 is 2.14e-08 M and the Emax came to 113%.

For `Cc1cc(N2C[C@H](C)n3ncc(C(=O)Nc4cncc(F)c4C)c3C2=O)ccc1C(F)(F)F` [compound 125], the melting point was 156.83 °C. Moreover, on human mGlu2 receptor, the IC50 was 2.34e-09 M and the Emax worked out at 110%.

Consider `Cc1cc(NC(=O)c2cnn3c2C(=O)N(c2ccc(C(F)(F)F)c(Cl)c2)C[C@@H]3C)on1` [compound 128], for which the melting point came out at 213.44 °C. For the same compound, on human mGlu2 receptor, the 50% inhibitory concentration (IC50) is 2.88e-09 M and the Emax was 106%.

Consider `Cc1c(F)cncc1NC(=O)c1cnn2c1C(=O)N(c1ccc(Cl)cc1)C[C@@H]2C` [compound 129], for which the melting point is 189.99 °C. On human mGlu2 receptor, the IC50 was 6.17e-09 M and the Emax stood at 110%.

In the case of `Cc1c(F)cncc1NC(=O)c1cnn2c1C(=O)N(c1ccc(Cl)c(Cl)c1)C[C@@H]2C` [compound 130], the melting point is 211.11 °C. On human mGlu2 receptor, the IC50 is 8.51e-10 M and the Emax came to 110%.

The compound `Cc1c(F)cncc1NC(=O)c1cnn2c1C(=O)N(c1ccc(C(F)(F)F)c(F)c1)C[C@@H]2C` [compound 131] registered a melting point of 186.35 °C. Also, at human mGlu2 receptor, the IC50 is 2.95e-09 M and the Emax came to 110%.

Consider `C[C@H]1CN(c2ccc(C(F)(F)F)cc2)C(=O)c2c(C(=O)NCc3ccc(N)nc3)cnn21` [compound 136, (7S)—N-[(6-Amino-3-pyridyl)methyl]-7-methyl-4-oxo-5-[4-(trifluoromethyl)phenyl]-6,7-dihydropyrazolo[1,5-a]pyrazine-3-carboxamide], for which the melting point was 104.2 °C. Besides, at human mGlu2 receptor, the IC50 was 1.55e-06 M and the Emax is 104%.

On to `C[C@H]1CN(c2ccc(C(F)(F)F)cc2)C(=O)c2c(C(=O)NC(=O)C3CCC3)cnn21` [compound 137, (7S)—N-(cyclobutanecarbonyl)-7-methyl-4-oxo-5-[4-(trifluoromethyl)phenyl]-6,7-dihydropyrazolo[1,5-a]pyrazine-3-carboxamide], for which the melting point turned out to be 237.74 °C. At human mGlu2 receptor, the IC50 is 4.07e-08 M and the Emax came out at 107%.

`CC(=O)NC(=O)c1cnn2c1C(=O)N(c1ccc(C(F)(F)F)cc1)C[C@@H]2C` [compound 138] came in with a melting point of 212.65 °C. On human mGlu2 receptor, the IC50 was 1.66e-07 M and the Emax worked out at 114%.

`C[C@H]1CN(c2ccc(C(F)(F)F)cc2)C(=O)c2c(C(=O)Nc3ncco3)cnn21` [compound 139] displayed a melting point of 204.9 °C. Further, on human mGlu2 receptor, the IC50 is 2.57e-08 M and the Emax stood at 109%.

For `C[C@H]1CN(c2ccc(C(F)(F)F)cc2)C(=O)c2c(C(=O)Nc3ncc[nH]3)cnn21` [compound 142], the melting point turned out to be 257.9 °C. For the same compound, at human mGlu2 receptor, the IC50 is 2.14e-07 M and the Emax came out at 110%.

`COc1cc(N2C[C@H](C)n3ncc(C(=O)Nc4cc(C)nc(C)c4)c3C2=O)ccc1C(F)(F)F` [compound 143] registered a melting point of 201.6 °C. For the same compound, at human mGlu2 receptor, the IC50 was 8.13e-09 M and the Emax is 116%.
